From patent US7250431B2, “Thiazole derivatives” (Hoffmann-La Roche Inc., priority 2003, dated 2007) come the findings set out here.

This experiment concerns the target T1, mouse NPY5-receptor (mNPY5) (Mus musculus, UniProt O70342).
T1 construct: The full-length cDNA encoding the mouse NPY5 (mNPY5) receptor was amplified from mouse brain cDNA; expressed in transfected cells; membranes used
T1 sequence (O70342 1-466): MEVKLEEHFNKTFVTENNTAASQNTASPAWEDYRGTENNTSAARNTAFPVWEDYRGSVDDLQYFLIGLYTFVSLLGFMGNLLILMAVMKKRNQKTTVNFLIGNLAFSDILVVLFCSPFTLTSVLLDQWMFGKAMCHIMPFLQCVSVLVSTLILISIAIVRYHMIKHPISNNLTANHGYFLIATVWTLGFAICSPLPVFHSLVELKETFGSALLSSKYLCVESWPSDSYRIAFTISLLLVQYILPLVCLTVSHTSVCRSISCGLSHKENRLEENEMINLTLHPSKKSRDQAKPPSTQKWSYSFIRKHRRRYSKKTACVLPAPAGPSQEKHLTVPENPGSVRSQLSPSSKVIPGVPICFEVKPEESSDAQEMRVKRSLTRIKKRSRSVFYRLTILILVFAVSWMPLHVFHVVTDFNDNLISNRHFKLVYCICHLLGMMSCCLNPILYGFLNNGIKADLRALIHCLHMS
In words: Radioligand competition binding. Conditions: membranes of HEK293 cells expressing recombinant mNPY5; 100 pM [125I]labelled peptide YY; 1 h at 22° C.; read-out: NPY5-R (mouse) IC50. The text has this:
The full-length cDNA encoding the mouse NPY5 (mNPY5) receptor was amplified from mouse brain cDNA using specific primers, designed based on the published sequence, and Pfu DNA-Polymerase. The amplification product was subcloned into the mammalian expression vector pcDNA3 using Eco RI and XhoI restriction sites. Positive clones were sequenced and one clone, encoding the published sequence was selected for generation of stable cell clones.
Human embryonic kidney 293 (HEK293) cells were transfected with 10 μg mNPY5 DNA using the lipofectamine reagent. Two days after transfection, geneticin selection (1 mg/ml) was initiated and several stable clones were isolated. One clone was further used for pharmacological characterization.
Human embryonic kidney 293 cells (HEK293), expressing recombinant mouse NPY5-receptor (mNPY5) were broken by three freeze/thawing cycles in hypotonic Tris buffer (5 mM, pH 7.4, 1 mM MgCl2), homogenized and centrifuged at 72,000×g for 15 min. The pellet was washed twice with 75 mM Tris buffer, pH 7.4, containing 25 mM MgCl2 and 250 mM sucrose, 0.1 mM phenylmethylsulfonylfluoride and 0.1 mM 1,10-pheneanthrolin, resuspended in the same buffer and stored in aliquots at −80° C. Protein was determined according to the method of Lowry using bovine serum albumine (BSA) as a standard. […]

Regarding `Cc1ccccc1C(=O)c1cnc(Nc2ccc(NS(=O)(=O)c3cccc(F)c3)cc2)s1` [Example 5, 3-Fluoro-N-{4-[5-(2-methyl-benzoyl)-thiazol-2-ylamino]-phenyl}-benzenesulfonamide], the IC50 was 0.74 nM.

For `Cc1ccccc1C(=O)c1cnc(Nc2cccc(NS(=O)(=O)c3cccs3)c2)s1` [Example 23, Thiophene-2-sulfonic acid {3-[5-(2-methyl-benzoyl)-thiazol-2-ylamino]-phenyl}-amide], the IC50 was 0.54 nM.

As to `Cc1ccccc1C(=O)c1cnc(Nc2ccc(CNS(=O)(=O)c3cc(F)ccc3C)cc2)s1` [Example 37, 5-Fluoro-2-methyl-N-{4-[5-(2-methyl-benzoyl)-thiazol-2-ylamino]-benzyl}-benzenesulfonamide], the IC50 was 0.99 nM.
